Test results taken from patent US8779129B2, “Triazinedione derivatives as GABAB receptor modulators” (Addex Pharma S.A., priority 2006, dated 2014).

Row | Structure (SMILES) | melting point
1 | COCC(=O)Nc1cccc(-n2nc(OC)c(=O)n(Cc3ccc(Cl)cc3)c2=O)c1 [4.141, N-(3-(4-(4-chlorobenzyl)-6-methoxy-3,5-dioxo-4,5-dihydro-1,2,4-triazin-2(3H)-yl)phenyl)-2-methoxyacetamide] | 143 °C
2 | COc1nn(-c2cccc(-c3noc(C)n3)c2)c(=O)n(Cc2ccc(Cl)cc2)c1=O [4.146, 4-(4-chlorobenzyl)-6-methoxy-2-(3-(5-methyl-1,2,4-oxadiazol-3-yl)phenyl)-1,2,4-triazine-3,5(2H,4H)-dione] | 163 to 165 °C
3 | COc1nn(-c2cccc(Nc3nccs3)c2)c(=O)n(Cc2ccc(Cl)cc2)c1=O [4.144, 4-(4-chlorobenzyl)-6-methoxy-2-(3-(thiazol-2-ylamino)phenyl)-1,2,4-triazine-3,5(2H,4H)-dione] | 176 to 178 °C
4 | COCc1nn(-c2cccc(NC(C)=O)c2)c(=O)n(Cc2ccc(Cl)cc2)c1=O [5.16, N-(3-(4-(4-chlorobenzyl)-6-(methoxymethyl)-3,5-dioxo-4,5-dihydro-1,2,4-triazin-2(3H)-yl)phenyl)acetamide] | 97 °C
5 | CC(=O)Nc1cccc(-n2ncc(=O)n(Cc3ccc(C#N)cc3)c2=O)c1 [2.05, N-(3-(4-(4-cyanobenzyl)-3,5-dioxo-4,5-dihydro-1,2,4-triazin-2(3H)-yl)phenyl)acetamide] | 184 to 185 °C
6 | CC(=O)Nc1cccc(-n2nc(N(C)C)c(=O)n(Cc3ccc(Cl)cc3)c2=O)c1 [5.13, N-(3-(4-(4-chlorobenzyl)-6-(dimethylamino)-3,5-dioxo-4,5-dihydro-1,2,4-triazin-2(3H)-yl)phenyl)acetamide] | 189 to 190 °C
7 | CC(=O)Nc1cccc(-n2nc(CN(C)C)c(=O)n(Cc3ccc(Cl)cc3)c2=O)c1.Cl | 143 °C
8 | CC(=O)Nc1cccc(-n2nc(C(C)C)c(=O)n(Cc3ccc(Cl)cc3)c2=O)c1 [5.01, N-(3-(4-(4-chlorobenzyl)-6-isopropyl-3,5-dioxo-4,5-dihydro-1,2,4-triazin-2(3H)-yl)phenyl)acetamide] | 178 °C
9 | CC(=O)Nc1cccc(-n2ncc(=O)n(Cc3ccc(Cl)cc3F)c2=O)c1 [2.20, N-(3-(4-(4-chloro-2-fluorobenzyl)-3,5-dioxo-4,5-dihydro-1,2,4-triazin-2(3H)-yl)phenyl)acetamide] | 184 °C
10 | COc1nn(-c2cccc(NC(C)=O)c2)c(=O)n(Cc2ccc3c(c2)OC(F)(F)O3)c1=O [4.127, N-(3-(4-((2,2-difluorobenzo[d][1,3]dioxol-5-yl)methyl)-6-methoxy-3,5-dioxo-4,5-dihydro-1,2,4-triazin-2(3H)-yl)phenyl)acetamide] | 184 °C
11 | COc1nn(-c2cccc(NC(C)=O)c2)c(=O)n(Cc2ccc(Cl)cc2)c1=O [4.01, N-(3-(4-(4-chlorobenzyl)-6-methoxy-3,5-dioxo-4,5-dihydro-1,2,4-triazin-2(3H)-yl)phenyl)acetamide] | 190 to 191 °C
12 | CC(=O)Nc1cccc(-n2nc(C)c(=O)n(Cc3ccc(Cl)cc3)c2=O)c1 [3.01, N-(3-(4-(4-chlorobenzyl)-6-methyl-3,5-dioxo-4,5-dihydro-1,2,4-triazin-2(3H)-yl)phenyl)acetamide] | 168 °C
13 | COc1nn(-c2ccccc2O)c(=O)n(Cc2ccc(Cl)cc2)c1=O [4.143, 4-(4-chlorobenzyl)-2-(2-hydroxyphenyl)-6-methoxy-1,2,4-triazine-3,5(2H,4H)-dione] | 164 to 165 °C
14 | CC(=O)Nc1cccc(-n2ncc(=O)n(Cc3ccc(Cl)cc3)c2=O)c1 [2.01, N-(3-(4-(4-chlorobenzyl)-3,5-dioxo-4,5-dihydro-1,2,4-triazin-2(3H)-yl)phenyl)acetamide] | 171 to 172 °C
15 | CC(=O)Nc1cccc(-n2nc(C(=O)OC(C)C)c(=O)n(Cc3ccc(Cl)cc3)c2=O)c1 [5.18, Isopropyl 2-(3-acetamidophenyl)-4-(4-chlorobenzyl)-3,5-dioxo-2,3,4,5-tetrahydro-1,2,4-triazine-6-carboxylate] | 183 °C
16 | CC(=O)Nc1cccc(-n2nc(C#N)c(=O)n(Cc3ccc(Cl)cc3)c2=O)c1 [1.01, N-(3-(4-(4-chlorobenzyl)-6-cyano-3,5-dioxo-4,5-dihydro-1,2,4-triazin-2(3H)-yl)phenyl)acetamide] | 196 °C
17 | COC(=O)c1nn(-c2cccc(NC(C)=O)c2)c(=O)n(Cc2ccc(Cl)cc2)c1=O [5.17, Methyl 4-(4-chlorobenzyl)-2-(3-acetamidophenyl)-3,5-dioxo-2,3,4,5-tetrahydro-1,2,4-triazine-6-carboxylate] | 193 °C
18 | COc1nn(-c2cccc(N(C)C(C)=O)c2)c(=O)n(Cc2ccc(Cl)cc2)c1=O [4.133, N-(3-(4-(4-chlorobenzyl)-6-methoxy-3,5-dioxo-4,5-dihydro-1,2,4-triazin-2(3H)-yl)phenyl)-N-methylacetamide] | 157 °C
19 | COc1nn(-c2cccc(N3CCCC3=O)c2)c(=O)n(Cc2ccc(Cl)cc2)c1=O [4.145, 4-(4-chlorobenzyl)-6-methoxy-2-(3-(2-oxopyrrolidin-1-yl)phenyl)-1,2,4-triazine-3,5(2H,4H)-dione] | 91 to 93 °C
